Results: PMC8910733, “Cyclin-Dependent Kinases (CDKs) and the Human Cytomegalovirus-Encoded CDK Ortholog pUL97 Represent Highly Attractive Targets for Synergistic Drug Combinations” (International Journal of Molecular Sciences, 2022)
Several values for one entry are separate records, joined by “and”; a condition that tells them apart may be missing. Equal values may be shown once. Read-outs that look alike come from different tables or passages of the source.

Tests used:
[1] = neutral red assay (NRA), drug-induced cytotoxicity; type: cell-based, human; conditions: human
Protocol: (§1) Drug induced cytotoxicity in HFFs was measured as a reduction of cell viability determined by neutral red uptake assay (NRA), as described previously. Briefly, HFFs treated with compounds for 7 d were incubated with a final concentration of 40 μg/mL neutral red (Sigma Aldrich, St. Louis, MO, USA) for 3 h. Incorporated neutral red was released from the cells by incubation with destaining solution (50% ethanol, 49% H2O, 1% acetic acid) and subsequently quantitated in a microplate reader (PerkinElmer, Waltham, MA, USA) by fluorescence measurement using 560/630 nm for excitation/emission, respectively.

HCMV AD169-GFP [2] = test: Loewe additivity fixed-dose assay
Protocol: (§2) Loewe additivity was assessed using an adapted protocol of the HCMV GFP-based replication assay [21, 61] described previously [1]. HFFs were seeded at app. 1.6 × 10^5 cells/well in 12-well culture plates (four plates per assay) and infected on the following day with HCMV AD169-GFP [61] in a dilution resulting in 25% GFP-positive cells at 7 d p.i. (i.e., 1× TCID25^7d). […] Standard protocol comprised a serial dilution of six concentrations/single compound, starting with app. 4–8 × EC50, and a 1:2 serial dilution of eight concentrations of the combination, starting with a combination of half of the highest concentrations of both single dilution series. All infections were performed in biological duplicates. Cells were lysed by the addition of 200 µL lysis buffer/well 7 d p.i., and cell suspensions were mixed and transferred to a 96-well plate. Centrifugation was performed at 3000 rpm for 15 min and clear lysates were subjected to automated GFP quantitation in a Victor X4 microplate reader (PerkinElmer, Waltham, MA, USA). Antiviral efficacy (mean of duplicate measurement of biological duplicates) was expressed as the percentage of solvent control and entered into the CompuSyn software (Version 1.0 [65]; ComboSyn, Inc., Paramus, NJ, USA). Only experiments with an r value > 0.90 and EC50 values close to previously determined concentrations were accepted.

[3] = system: mock-infected primary human foreskin fibroblasts (HFFs); test: neutral red assay (NRA), drug-induced cytotoxicity; type: cell-based; conditions: single treatment; mock-infected HFFs, 7 d; mean ± SD
Protocol: as §1

HCMV AD169-GFP [4] = conditions: for SI: selectivity index CC50/EC50
Protocol: (§3) Primary human foreskin fibroblasts (HFFs, derived from clinical samples, Children’s Hospital, Erlangen, Germany) were grown in Eagle’s minimal essential medium (MEM) supplemented with 1 × GlutaMAX^TM (both Thermo Fisher Scientific, Waltham, MA, USA), 10 μg/mL gentamicin and 10% fetal bovine serum (FBS, Capricorn, Ebsdorfergrund, Germany). […] Cultured cells were maintained at 37 °C, 5% CO2 and 80% humidity. All cell culture was regularly monitored for absence of mycoplasma contamination (Lonza™ Mycoalert™, Thermo Fisher Scientific, Waltham, MA, USA). Recombinant HCMV AD169 expressing green fluorescent protein (AD169-GFP, [61]) and recombinant ORF-UL97-deleted HCMV AD169 expressing green fluorescent protein (ΔUL97-GFP BAC213 [48]) were used for in vitro replication assays.
as §2

HCMV AD169-GFP [5] = test: antiviral drug treatment in wild-type HFFs; conditions: WT HFFs
Protocol: (§4) To achieve a transient knock-out of cyclin H, app. 1.5 × 10^5 HFFs/well were grown in 12-well culture plates and, starting the following day, incubated for 24 h with 0.5 mL of lentiviral supernatant (a mixture containing all six gRNAs described in 4.9) supplemented with 0.5 mL MEM and 7.5 µg/mL polybrene (Sigma Aldrich, St. Louis, MO, USA) per well. Virus supernatant was replaced by fresh media 24 h later and cells were used for infection experiments (see 4.5 and 4.6) on the following day.
(§5) 12-well culture plates and treated with lentiviral supernatants to achieve a CRISPR/C as9 -media ted
(§6) transient cyclin H knock-down. Subsequently, cells were dir ectly infected with HCMV AD169-GF P for
(§7) 90 min , then fresh medium, supplemented with indicated concentrations of compounds, was added. Cells
(§8) were harvested and lysed 7 d pos t-infection and vira l GFP reporter signa ls were measured in
(§9) quadruplicate. Data are presented as mean values of biological duplicates, adjusted in percent to the
(§10) respective solvent DMSO c on t r ol (ctrl ).

CDK7 = test: confocal immunofluorescence quantitation of CDK7 signal in HFFs; conditions: HCMV AD169-GFP-infected HFFs, 7 d; MBV 10 µM, LDC4297 0.1 µM, R25 1 µM, abemaciclib 1 µM; untreated mock-infected = 100%; mean ± SEM
HCMV AD169-GFP [6] = test: confocal quantitation of GFP reporter signal in HFFs; conditions: MBV 10 µM, LDC4297 0.1 µM, R25 1 µM, abemaciclib 1 µM; untreated infected = 100%, mock = 0%
HCMV ΔUL97-GFP BAC213 = test: GFP replication assay with deletion mutant
Protocol: Primary human foreskin fibroblasts (HFFs, derived from clinical samples, Children’s Hospital, Erlangen, Germany) were grown in Eagle’s minimal essential medium (MEM) supplemented with 1 × GlutaMAX^TM (both Thermo Fisher Scientific, Waltham, MA, USA), 10 μg/mL gentamicin and 10% fetal bovine serum (FBS, Capricorn, Ebsdorfergrund, Germany). […] Cultured cells were maintained at 37 °C, 5% CO2 and 80% humidity. All cell culture was regularly monitored for absence of mycoplasma contamination (Lonza™ Mycoalert™, Thermo Fisher Scientific, Waltham, MA, USA). […]
Loewe additivity was assessed using an adapted protocol of the HCMV GFP-based replication assay [21, 61] described previously [1]. […] Centrifugation was performed at 3000 rpm for 15 min and clear lysates were subjected to automated GFP quantitation in a Victor X4 microplate reader (PerkinElmer, Waltham, MA, USA). Antiviral efficacy (mean of duplicate measurement of biological duplicates) was expressed as the percentage of solvent control and entered into the CompuSyn software (Version 1.0 [65]; ComboSyn, Inc., Paramus, NJ, USA). Only experiments with an r value > 0.90 and EC50 values close to previously determined concentrations were accepted.

HCMV AD169-GFP [7] = test: antiviral drug treatment in cyclin H knock-out HFFs; conditions: CycH KO HFFs
Protocol: as §4, §5, §6, §7, §8, §9, §10

HCMV AD169-GFP [8] = test: microbe, parasite or virus in culture
Protocol: as §3, §2

[9] = mock-infected primary human foreskin fibroblasts (HFFs), single treatment, mock-infected HFFs, 7 d, mean ± SD, read-out: CC50
[10] = Human betaherpesvirus 5, AD169, single treatment, HCMV AD169-GFP in HFFs, mean ± SD

`CC(=O)N[C@@H]1CCC[C@H](C(=O)Nc2cc(-c3cnn4c3CC(C)(C)C4)c(Cl)cn2)C1` [AZD4573] gave a CC50 at 7 d [1, 9] of 350 ± 90 nM.
Work on `CC[C@H](Nc1nc(NCc2cnc(C)cc2C)c2ncn(C(C)C)c2n1)[C@@H](C)O` [CYC065] yielded a CC50 at 7 d [1, 9] of less than 100 nM.
In the case of `CC(C)c1cnn2c(NCc3ccccc3-n3cccn3)nc(OC3CCCNC3)nc12` (stereo not shown) [LDC4297], the EC50 (HCMV AD169-GFP [2]; read-out: EC50 single drugs, single drug, run beside the combination of the same table section) is reported as 13 nM and 9 nM and 16 nM, the EC90 (HCMV AD169-GFP [2]; read-out: EC90 single drugs, single drug, run beside the combination of the same table section) is reported as 97 nM and 147 nM and 88 nM and 124 nM and the CC50 [3] is reported as greater than 10000 nM. For the same compound, the EC50 (HCMV AD169-GFP [4]; parental HCMV AD169-GFP, in parallel with ΔUL97 mutant (Figure 5A)) was 16 ± 5 nM, the SI (HCMV AD169-GFP [4]; single treatment) was greater than 1000 and the EC50 (HCMV AD169-GFP [4]; single treatment, HCMV AD169-GFP in HFFs, mean ± SD) was 9 ± 2 nM. For the same compound, the “mean replication (in % solvent control)” value (HCMV AD169-GFP [5]; 0.003 µM) was 91%, the “mean replication (in % solvent control)” value (HCMV AD169-GFP [5]; 0.025 µM) was 23% and the “mean replication (in % solvent control)” value (HCMV AD169-GFP [5]; 0.1 µM) was 7%. For the same compound, the CDK7 intensity (CDK7) was 172% ± 7%, the “HCMV AD169-GFP-specific reporter signal (GFP intensity)” value (HCMV AD169-GFP [6]) was “below 25%” and the EC50 (HCMV ΔUL97-GFP BAC213; deletion mutant ΔUL97 BAC213 (Figure 5B)) was 61 ± 8 nM. The “mean replication (in % solvent control)” value (HCMV AD169-GFP [7]; 0.003 µM) was 85%, the “mean replication (in % solvent control)” value (HCMV AD169-GFP [7]; 0.025 µM) was 32% and the “mean replication (in % solvent control)” value (HCMV AD169-GFP [7]; 0.1 µM) was 4%.
In the case of `CC(C)Nc1nc2cc(Cl)c(Cl)cc2n1[C@H]1O[C@@H](CO)[C@H](O)[C@@H]1O` [MBV, maribavir], the CC50 at 7 d [1, 9] is reported as greater than 100000 nM, the SI (HCMV AD169-GFP [4]; single treatment) is reported as greater than 250 and the “mean replication (in % solvent control)” value (HCMV AD169-GFP [5]; 0.31 µM) is reported as 20%. The “mean replication (in % solvent control)” value (HCMV AD169-GFP [5]; 2.5 µM) was 6%, the “mean replication (in % solvent control)” value (HCMV AD169-GFP [5]; 10 µM) was 3% and the EC50 (HCMV AD169-GFP [8]; Human betaherpesvirus 5, AD169, parental HCMV AD169-GFP, in parallel with ΔUL97 mutant (Figure 5A)) was 220 ± 260 nM. The EC50 (HCMV AD169-GFP [8]; [10]) was 350 ± 420 nM, the “HCMV AD169-GFP-specific reporter signal (GFP intensity)” value (HCMV AD169-GFP [6]) was “below 25%” and the EC50 (HCMV ΔUL97-GFP BAC213; Human betaherpesvirus 5) was greater than 20000 nM. The “mean replication (in % solvent control)” value (HCMV AD169-GFP [7]; 0.31 µM) was 21%, the “mean replication (in % solvent control)” value (HCMV AD169-GFP [7]; 2.5 µM) was 9% and the “mean replication (in % solvent control)” value (HCMV AD169-GFP [7]; 10 µM) was 6%.
`Cc1c(Br)c(Br)c2c3c1nc(N1CCNCC1)n3CCC2` [SEL120] gave a CC50 at 7 d [1, 9] of 5900 ± 3850 nM, an SI (HCMV AD169-GFP [4]; single treatment) of 75 and an EC50 (HCMV AD169-GFP [8]; [10]) of 79 ± 1 nM.
`CC(C)(C)c1cnc(CSc2cnc(NC(=O)C3CCN(CC(=O)NCCOCCOCCOCCNc4cccc5c4C(=O)N(C4CCC(=O)NC4=O)C5=O)CC3)s2)o1` (stereo not shown) [THAL-SNS032] gave a CC50 at 7 d [1, 9] of 140 ± 60 nM, an SI (HCMV AD169-GFP [4]; single treatment) of 6 and an EC50 (HCMV AD169-GFP [8]; [10]) of 25 ± 2 nM.
With `CCc1cnn2c(NCc3ccc[n+]([O-])c3)cc(N3CCCC[C@H]3CCO)nc12` [dinaciclib] the CC50 at 7 d [1] was less than 100 nM.
`CN1CCC(c2c(O)cc(O)c3c(=O)cc(-c4ccccc4Cl)oc23)C1CO` (stereo not shown) [riviciclib] showed a CC50 at 7 d [1, 9] of 1600 ± 60 nM.
With `CC(C)c1cnn2c(NCc3ccccc3)cc(NC[C@H]3CCNC[C@@H]3O)nc12` [samuraciclib] the CC50 at 7 d ([1]; single treatment, mock-infected HFFs, 7 d, mean ± SD, read-out: CC50) was 500 ± 210 nM.
CVT-313 gave a CC50 [3] of 5570 ± 50 nM.
Compound SY1365 has a CC50 [3] of less than 100 nM.
